One compound from PubChem BioAssay (NCI) can be followed below.

“And” between values parts separate entries of the source, which are not always exact repeats. Equal entries are not always repeated.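 1) Cells in 96-well plates. 2) Compound, 48 h, 5 concentrations. 3) Linear interpolation between surrounding doses. 4) Unreached endpoint = highest concentration. GI50 = concentration required for 50% inhibition of growth. Definition used: TGI = concentration required for complete inhibition of growth.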

Test systems include BT-549 breast; DMS 273 small cell lung; LXFL 529 NSCLC; M19-MEL melanoma; MCF7 breast; MDA-MB-231 breast; PC-3 prostate; RXF-631 renal; SNB-78 CNS; XF 498 CNS.
Holding throughout (test): DTP human tumour cell line panel, 48 h

In the case of `COC1C(O)C(C)OC(OC2C(Oc3cccc4c(O)c5c(=O)oc6ccc(C)c7c(=O)oc(c34)c5c67)OC(C)C3O[C@H](c4ccccc4)OC32)C1O` (some centres undefined), the GI50 in the experiment with BT-549 breast is 685 nM and 1500 nM; with MCF7 breast it was 225 nM; in the experiment with MDA-MB-231 breast it was 455 nM; in the experiment on PC-3 prostate it was 243 nM. For the same compound, the TGI in the experiment on BT-549 breast came out at 6270 nM; in the experiment with DMS 273 small cell lung it was 1590 nM; in the experiment on LXFL 529 NSCLC, 3180 nM; in the experiment on M19-MEL melanoma, 3560 nM; with MCF7 breast it was 4120 nM; with MDA-MB-231 breast, 7780 nM. The TGI in the experiment with PC-3 prostate stood at 8710 nM; in the experiment with RXF-631 renal, 2370 nM; with SNB-78 CNS, 4730 nM; in the experiment with XF 498 CNS, 2210 nM.

As a reminder, the GI50 is the concentration giving 50% growth inhibition. By TGI is commonly meant the concentration giving total growth inhibition.
